Test results reported in PMC9241695, “Selective Metal Chelation by a Thiosemicarbazone Derivative Interferes with Mitochondrial Respiration and Ribosome Biogenesis in Candida albicans” (Microbiology Spectrum, 2022).
In brackets after ≈: the same amount, converted by molar mass.

Experiments:
Assay in all cases: Antifungal susceptibility testing, microbroth dilution MIC
Assay type in all cases: cell-based
A. fumigatus AF293 = conditions: Aspergillus fumigatus, AF293, 48 h, read-out: MIC (μg/mL) against fungi AF293
Source text: (§1) Compound library. The thiosemicarbazone derivatives Triapine and COTI-2 were purchased from Med Chem Express (MCE). The other 87 thiosemicarbazones used in this study were previously synthesized by our collaborators (1, 2). Their structures are shown in Table 1 and Table S1 to help the reader clearly understand the relationship between structure and activity.
(§2) Strains and culture conditions. Clinically derived C. albicans isolates, including G5, F5, and Gu5, were kindly provided by Professor Joachim Morschhäuser of the University of Würzburg. Other clinical C. albicans isolates were kindly donated by Professor Qingguo Qi of Shandong University and Qianfoshan Hospital of Shandong Province Other Candida strains were obtained from Jinan Central Hospital.
(§3) The zap1 mutant and its complemented strain were kindly provided by Professor Aaron P. Mitchell of Carnegie Mellon University (3). The C. neoformans strains used in this study was kindly donated by Professor Guojian Liao of Southwest University and A. fumigatus strain used in this study was provided by Professor Ling Lu of Nanjing Normal University. […]
(§4) Antifungal susceptibility testing. To determine in vitro antifungal activities, the microbroth dilution method was carried out in RPMI1640 medium according to the guidelines of the Clinical and Laboratory Standards Institute (4, 5). The initial concentration in RPMI1640 medium was 1 × 10^3 CFU/mL for the C. albicans and C. neoformans suspensions but 1 × 10^4 CFU/mL for A. fumigatus. The range of final drug concentrations was 0.0156–64 μg/mL. The plates were incubated at35°C for 24 […]
(§5) h (for C. albicans, C. krusei, C. tropicalis, C. parapsilosis) or 48 h (for C. neoformans, A. fumigatus). The MIC was determined based on visible growth inhibition compared with the control. All experiments were performed in duplicate. […]

C. neoformans H99 = conditions: Cryptococcus neoformans, H99, 48 h, read-out: MIC (μg/mL) against fungi H99
Source text: as §1, §2, §3, §4, §5

C. albicans SC5314 = conditions: Candida albicans, SC5314, 24 h, read-out: MIC (μg/mL) against fungi SC5314
Source text: as §1, §2
as §3, with “University. Before in vitro and in vivo experiments, all C. albicans strains were grown on YPD agar plates. After culturing at 30°C for 24 h, colonies of each strain were cultured in liquid YPD medium at 30°C with continuous shaking” for “University.”
as §4, §5

**Q.** With `CCC/C(=N\NC(=S)Nc1ccccc1Br)c1ccccn1` [Compound 19v] as the compound, how does the MIC (A. fumigatus AF293) read?
**A.** 4 µg/mL (≈ 10.6 µM)

**Q.** What about the MIC (C. neoformans H99) of the same compound?
**A.** 0.25 µg/mL (≈ 0.663 µM)

**Q.** What about the MIC (C. albicans SC5314) of the same compound?
**A.** 1 µg/mL (≈ 2.65 µM)
